US20020072127A1, “Assay of chemical binding” (priority 2000, published 2002)

Test: Micro-cantilever deflection on ligand-receptor binding (biotin-coated micro-cantilever immersed in water in small vessel)
Excerpt: Referring to FIG. 1, a micro-cantilever 10 is fixed at one end to a block 12. The micro-cantilever 10 is generally V-shaped in plan, comprising two converging strips 13,14, which are integral with a transverse cross strip 15. It projects 0.2 mm from the block 12, the strips 13 and 14 each being 24 microns wide and the entire micro-cantilever 10 is of silicon nitride of thickness 0.6 microns. The top surface of the micro-cantilever 10 is coated with a 5 nm layer of chromium followed by a 13 nm layer of gold, to improve its optical reflectivity. The gold on one strip 13 is then coated with octadecanethiol, which forms a self-assembled, highly ordered monolayer on gold, and biotin is then bonded to this monolayer. Biotin acts as a selective receptor for avidin.
Referring now to FIG. 2 any deflection or twisting of the micro-cantilever 10 is detected optically, by focusing a light beam from a laser diode 16 onto the cross strip 15, and detecting the reflection with a quadrant photodiode 18. The light intensities detected by the four segments of the photodiodo 19 may be used to determine the deflection of the cross strip 15. If the micro-cantilever 10 is exposed to a solution of avidin, which binds to the biotin, this changes the surface stress of the strip 13, causing the micro-cantilever 10 to twist, so changing the inclination of the cross strip 15.
The time at which the avidin is injected is indicated by the arrow A. Before this time the deflection is substantially constant. The gradual change in deflection over a period of about five minutes, the deflection then reaching a new, steady value differing by h from its initial value. The bending is caused by the surface stress change resulting from the reaction; the change in surface stress is, at least approximately, equal to the change of surface energy, which can be related to the concentration c or the ligand and the equilibrium constant K of the binding reaction onto the surface (i.e. ka/kd, where ka is the adsorption coefficient and kd is the desorption coefficient).

Row | Substance | binding strength to biotin relative to immunoglobulin G (FIG. 5, avidin displaces bound immunoglobulin G) | further deflection of the micro-cantilever (FIG. 5, avidin injected (arrow Q) after IgG had bound to biotin, arbitrary units) | deflection of the micro-cantilever resulting from injection (FIG. 5, IgG injected first (arrow P), arbitrary units, steady value after several minutes) | deflection resulting from the initial injection (FIG. 6, concentration in vessel 0.047 μM, after about 10 minutes, arbitrary units) | deflection resulting from the second injection (FIG. 6, concentration raised to 0.068 μM, after a further 10 minutes, arbitrary units)
1 | avidin | binds to biotin more strongly | about 200 units | – | – | –
2 | immunoglobulin G | – | – | about 200 units | about 235 units | about 290 units
